Measured values published in patent US10765114B2, “4-amino-6-(pyridyl and 2-substitutedphenyl)-picolinates and 6-amino-2-(pyridyl and 2-substitutedphenyl)-pyrimidine-4-carboxylates and their use as herbicides” (Dow AgroSciences LLC, priority 2013, dated 2020).

Tests used:
Assay in all cases: Post-Emergent Test III (Wheat and Barley)
TRZSS = assay type: in vivo; details: for pest or weed control at 35 g/ha: 35 g ai/ha; for pest or weed control at 70 g/ha: 70 g ai/ha; for GR20, TRZSS: effective dose for growth reduction of 20 percent, probit analysis
Experimental: (§1) Seeds of the desired test plant species were planted in Sun Gro MetroMix® 306 planting mixture, which typically has a pH of 6.0 to 6.8 and an organic matter content of about 30 percent, in plastic pots with a surface area of 103.2 square centimeters (cm^2). When required to ensure good germination and healthy plants, a fungicide treatment and/or other chemical or physical treatment was applied. The plants were grown for 7-36 days in a greenhouse with an approximate 14 h photoperiod which was maintained at about 18° C. during the day and 17° C. during the night. Nutrients and water were added on a regular basis and supplemental lighting was provided with overhead metal halide 1000-Watt lamps as necessary. The plants were employed for testing when they reached the second or third true leaf stage.
(§2) A weighed amount, determined by the highest rate to be tested, of each test compound was placed in a 25 mL glass vial and was dissolved in 4 mL of a 97:3 v/v mixture of acetone and DMSO to obtain concentrated stock solutions. […] The concentrated stock solutions obtained were diluted with 20 mL of an aqueous mixture containing acetone, water, isopropyl alcohol, DMSO, Agri-Dex crop oil concentrate, and X-77 surfactant in a 48:39:10:1.5:1.5:0.02 v/v ratio to obtain spray solutions containing the highest application rates. Additional application rates were obtained by serial dilution of 12 mL of the high rate solution into a solution containing 2 mL of 97:3 v/v mixture of acetone and DMSO and 10 mL of an aqueous mixture containing acetone, water, isopropyl alcohol, DMSO, Agri-Dex crop oil concentrate, and X-77 surfactant in a 48:39:10:1.5:1.5:0.02 v/v ratio to obtain ½×, ¼×, ⅛× and 1/16× rates of the high rate. Compound requirements are based upon a 12 mL application volume at a rate of 187 liters per hectare (L/ha). Formulated compounds were applied to the plant material with an overhead Mandel track sprayer equipped with 8002E nozzles calibrated to deliver 187 L/ha over an application area of 0.503 square meters at a spray height of 18 inches (43 cm) above the average plant canopy height. Control plants were sprayed in the same manner with the solvent blank.
(§3) The treated plants and control plants were placed in a greenhouse as described above and watered by subirrigation to prevent wash-off of the test compounds. After 21 dAYS, the condition of the test plants as compared with that of the untreated plants was determined visually and scored on a scale of 0 to 100 percent where 0 corresponds to no injury and 100 corresponds to complete kill and presented as indicated in Table A.
(§4) By applying the well-accepted probit analysis as described by J. Berkson in Journal of the American Statistical Society, 48, 565 (1953) and by D. Finney in “Probit Analysis” Cambridge University Press (1952), herbicidal injury of a specific compound at various rates can be used to calculate GR10, GR20, GR50, GR80 and GR90 values, which are defined as growth reduction factors that correspond to the effective dose of herbicide required to provide plant growth reduction (GR) of 10 percent, 20 percent, 50 percent, 80 percent and 90 percent, respectively. Probit analysis was applied to data collected from multiple dose rates of individual compounds utilizing the procedures explained in the following examples. The analysis of those dose rates is captured in the following tables.

HORSS = assay type: in vivo; details: for pest or weed control at 35 g/ha: 35 g ai/ha; for pest or weed control at 70 g/ha: 70 g ai/ha; for GR20, HORSS: effective dose for growth reduction of 20 percent, probit analysis
Experimental: as §1, §2, §3, §4

APESV (windgrass) = assay type: in vivo, Apera spica-venti; details: for pest or weed control at 35 g/ha: 35 g ai/ha; for pest or weed control at 70 g/ha: 70 g ai/ha; for GR50, APESV: effective dose for growth reduction of 50 percent; for GR50, APESV / GR80, APESV: probit analysis; for GR80, APESV: effective dose for growth reduction of 80 percent
Experimental: as §1, §2, §3, §4

KCHSC (kochia) = assay type: in vivo, Kochia scoparia; details: for pest or weed control at 35 g/ha: 35 g ai/ha; for pest or weed control at 70 g/ha: 70 g ai/ha; for GR50, KCHSC: effective dose for growth reduction of 50 percent; for GR50, KCHSC / GR80, KCHSC: probit analysis; for GR80, KCHSC: effective dose for growth reduction of 80 percent
Experimental: as §1, §2, §3, §4

ALOMY (blackgrass) = assay type: in vivo, Alopecurus myosuroides; details: for pest or weed control at 35 g/ha: 35 g ai/ha; for pest or weed control at 70 g/ha: 70 g ai/ha; for GR50, ALOMY: effective dose for growth reduction of 50 percent; for GR50, ALOMY / GR80, ALOMY: probit analysis; for GR80, ALOMY: effective dose for growth reduction of 80 percent
Experimental: as §1, §2, §3, §4

[1] = Triticum aestivum, post-emergence, 504 h, postemergence, read-out: Visual Growth Reduction (%) 21 Days After Application, TRZSS
[2] = Hordeum vulgare, post-emergence, 504 h, postemergence, read-out: Visual Growth Reduction (%) 21 Days After Application, HORSS
[3] = Apera spica-venti, post-emergence, 504 h, postemergence, read-out: Visual Growth Reduction (%) 21 Days After Application, APESV
[4] = Bassia scoparia, post-emergence, 504 h, postemergence, read-out: Visual Growth Reduction (%) 21 Days After Application, KCHSC
[5] = Alopecurus myosuroides, post-emergence, 504 h, postemergence, read-out: Visual Growth Reduction (%) 21 Days After Application, ALOMY

| SMILES | pest or weed control at 35 g/ha (TRZSS; [1]) | pest or weed control at 70 g/ha (TRZSS; [1]) | GR20, TRZSS (TRZSS) | pest or weed control at 35 g/ha (HORSS; [2]) | pest or weed control at 70 g/ha (HORSS; [2]) | GR20, HORSS (HORSS) | pest or weed control at 35 g/ha (APESV (windgrass); [3]) | pest or weed control at 70 g/ha (APESV (windgrass); [3]) | GR50, APESV (APESV (windgrass)) | GR80, APESV (APESV (windgrass)) | pest or weed control at 35 g/ha (KCHSC (kochia); [4]) | pest or weed control at 70 g/ha (KCHSC (kochia); [4]) | GR50, KCHSC (KCHSC (kochia)) | GR80, KCHSC (KCHSC (kochia)) | pest or weed control at 35 g/ha (ALOMY (blackgrass); [5]) | pest or weed control at 70 g/ha (ALOMY (blackgrass); [5]) | GR50, ALOMY (ALOMY (blackgrass)) | GR80, ALOMY (ALOMY (blackgrass)) | further results |
| --- | --- | --- | --- | --- | --- | --- | --- | --- | --- | --- | --- | --- | --- | --- | --- | --- | --- | --- | --- |
| COC(=O)c1nc(-c2ccc(C(F)(F)F)nc2)c(Cl)c(N)c1Cl [Compound 83] | 60 to 74% | 75 to 84% | 4 g ai/ha | 75 to 84% | 85 to 94% | 3 g ai/ha | 30 to 44% | 30 to 44% | 89 g ai/ha | >140 g ai/ha | 0 to 29% | 30 to 44% | 113 g ai/ha | >140 g ai/ha | 60 to 74% | 75 to 84% | 25 g ai/ha | 58 g ai/ha | – |
| COC(=O)c1nc(-c2ccc(C3CC3)nc2)c(F)c(N)c1Cl [Compound 49] | 75 to 84% | 85 to 94% | 1 g ai/ha | 75 to 84% | 85 to 94% | 1 g ai/ha | 85 to 94% | 75 to 84% | 1 g ai/ha | 24 g ai/ha | 95 to 100% | 95 to 100% | 9 g ai/ha | 17 g ai/ha | 0 to 29% | 30 to 44% | >140 g ai/ha | >140 g ai/ha | pest or weed control at 140 g/ha (TRZSS; Triticum aestivum, post-emergence, 504 h, 140 g ai/ha, postemergence, read-out: Visual Growth Reduction (%) 21 Days After Application, TRZSS): 85 to 94%; pest or weed control at 140 g/ha (HORSS; Hordeum vulgare, post-emergence, 504 h, 140 g ai/ha, postemergence, read-out: Visual Growth Reduction (%) 21 Days After Application, HORSS): 85 to 94%; pest or weed control at 140 g/ha (APESV (windgrass); Apera spica-venti, post-emergence, 504 h, 140 g ai/ha, postemergence, read-out: Visual Growth Reduction (%) 21 Days After Application, APESV): 85 to 94%; pest or weed control at 140 g/ha (KCHSC (kochia); Bassia scoparia, post-emergence, 504 h, 140 g ai/ha, postemergence, read-out: Visual Growth Reduction (%) 21 Days After Application, KCHSC): 85 to 94%; pest or weed control at 140 g/ha (ALOMY (blackgrass); Alopecurus myosuroides, post-emergence, 504 h, 140 g ai/ha, postemergence, read-out: Visual Growth Reduction (%) 21 Days After Application, ALOMY): 45 to 59% |
| COC(=O)c1nc(-c2ccc(C(F)(F)F)nc2)c(F)c(N)c1Cl [Compound 59, methyl 4-amino-5-chloro-3-fluoro-6′-(trifluoromethyl)-[2,3′-bipyridine]-6-carboxylate] | 60 to 74% | 75 to 84% | 4 g ai/ha | 75 to 84% | 75 to 84% | 4 g ai/ha | 30 to 44% | 75 to 84% | 42 g ai/ha | 72 g ai/ha | 60 to 74% | 75 to 84% | 27 g ai/ha | 57 g ai/ha | 30 to 44% | 60 to 74% | 48 g ai/ha | 80 g ai/ha | – |
